Assay results: patent US10815252B2, “Biflavone-copper complex, preparation method and application thereof” (NANJING FORESTRY UNIVERSITY, priority 2017, dated 2020)

Key:
[1] = ABTS method, free radical scavenging; type: biochemical; conditions: 25° C., 5 min reaction, 730 nm; read-out: IC50 for scavenging ABTS^+. free radicals
Procedure: (§1) The free radical scavenging capability of the Ame and the Ame-Cu complex were studied by pyrogallol auto-oxidation method and ABTS method with the following steps:
Determination of ABTS^+. free radical ion scavenging capability of the blank sample: at 25° C., 2.9 mL ABTS^+. free radical ion working solution was added into a 10 mL sample tube, 100 μL DMSO was added, after reacting for 5 min, the UV-vis spectrum was measured, and the absorption intensity A0 at 730 nm was recorded.
Determination of […]. free radical ion scavenging capability of the samples: at 25° C., 2.9 mL ABTS^+. free radical ion working solution was added into a 10 mL sample tube, 100 μL samples of different concentrations that were dissolved in DMSO were added, after reacting for 5 min, the UV-vis spectrum was measured, and the absorption intensity A1 at 730 nm was recorded, and the ABTS^+. free radical ion scavenging rate was calculated according to Formula 4. SR(%)=(1−A1/A0)×100% (Formula 4)
The ABTS^+. free radical scavenging capabilities of the Ame and the Ame-Cu complex are concentration dependent. Within a certain range, the scavenging rate is linear with the concentration. The curve of the scavenging rate and the concentration (c) is plotted in the present invention to obtain a corresponding linear equation, and the maximum half-inhibitory concentration (IC50 value) is calculated.

[2] = Pyrogallol auto-oxidation method, free radical scavenging; type: biochemical; conditions: Tris-HCl pH 8.20, 25° C., 322 nm, read-out: IC50 to scavenge O2^−. free radical
Procedure: as §1
(1) Pyrogallol Auto-Oxidation Method
Determination of auto-oxidation rate V0 of pyrogallol: 2 mL Tris-HCl buffer (pH=8.20) was added to a 10 mL sample tube at 25° C., 100 μL DMSO was added as a control, after adding 0.8 mL distilled water, 0.2 mL pyrogallol solution having a concentration of 2 mmol·L^−1 was added, the mixture was poured into a cuvette after mixing uniformly, the absorbance at 322 nm was measured with pure water as a blank, the A value was recorded every 10 s for a total of 4 min, linear regression was performed with t as the abscissa, and A as the ordinate, straight line slope thereof is V0, and the measurement was performed for three times to obtain an average value. […]

[3] = system: herring sperm DNA (fDNA); test: Interaction with fDNA by UV-vis spectroscopy, fluorescence spectroscopy and viscosity method; type: binding; conditions: UV-vis, fluorescence (fDNA-EB system), viscosity
Excerpt: UV-vis spectroscopy, fluorescence spectroscopy and viscosity method are used to study the interaction between the Ame and herring sperm DNA (fDNA), and the interaction between the Ame-Cu complex and herring sperm DNA (fDNA), to further reveal the mechanism of antitumor activity, the obtained spectra are shown in FIGS. 7-11. […] Thereby, it can be speculated that the mechanism of antitumor activity of the Ame and its complex may be that Ame or the complex thereof enters the interior of the cell and intercalates with the DNA strand to cause apoptosis. Since the interaction of the complex with DNA is stronger than of the Ame, the antitumor activity thereof is also stronger than of the Ame.

Row | SMILES | IC50 [1] | IC50 [2] | manner of interaction with fDNA [3]
1 | O=c1cc(-c2ccc(O)c(-c3c(O)cc(O)c4c(=O)cc(-c5ccc(O)cc5)oc34)c2)oc2cc(O)cc(O)c12 [Ame, amentoflavone] | 20.7 µM | 23.3 µM | intercalation manner
2 | CS(C)=[O+][Cu-4]1([O+]=S(C)C)[O+]=C2C=C(c3ccc(O)cc3)Oc3c2c(cc(O)c3-c2cc(-c3cc(=O)c4c(O)cc(O)cc4o3)ccc2O)[OH+]1 [Ame-Cu complex] | 6.31 µM | 4.57 µM | intercalation manner
